Patent US8835466B2, “Synthesis and uses of pyroglutamic acid derivatives” (Prodimed, S.A., priority 2006, dated 2014)

Test system: Lewis lung cells (lung cell carcinoma)
Experiment: Effect of 9d in combination with Cisplatin on tumour growth, Lewis lung (Example 13)
Format: in vivo, C57BL/6J mice
Settings: for Inhibition of the in vivo growth of Lewis lung tumour in inbred mice, in words / SURFACE Overall values (Mean) / SURFACE Overall values (Median) / VOLUME Overall values (Mean) / VOLUME Overall values (Median): 9d 250 ng; for Inhibition of the in vivo growth of Lewis lung tumour in inbred mice, in words: Cisplatin 65 μg i.p.; for SURFACE Overall values (Mean) / SURFACE Overall values (Median) / VOLUME Overall values (Mean) / VOLUME Overall values (Median): Cisplatin 65 μg, or both; for Differences in Lewis Lung tumour growth rate vs. placebo, statistical significance p (Mann-Whitney U test): either in surface or volume
Text: This assay was made in order to check the effect on in vivo tumour growth in mice challenged with Lewis lung cells. Their effect will be compared with the combination of chemotherapeutic agents plus 9d and/or placebo. Lewis Lung is a lung cell carcinoma originated in C57BL/6J mice strain, and therefore syngeneic in mice with C57BL/6J genetic background (Rodrigo Garzón M, Tirapu Fernández de la Cuesta […], Noel […] and […]. Use of Gene Therapy in a Subcutaneous Murine Model of Lung Cancer. Arch Bronconeumology. 42: 526-532; 2006). Lewis lung cells (CLS, Eppelheim, Germany) were maintained in vitro by serial passages every 3-4 days. […] Louis, Mo., USA) by seeding 5×10^6 cells onto 75 cm^2 culture flasks. Subcultures were carried out by collecting detached cells after treatment with trypsin-EDTA (Sigma, St. Louis, Mo., USA). Tumour cells, collected from 48 hour cultures, were used as source of Lewis Lung cells for the studies described below. […] Tumours were established by subcutaneous inoculation in the right hind flank. Mice were inoculated with 0.2 mL containing 2×10^5 viable cells. The day of subcutaneous inoculation will be considered Day 0 of the test. Mice were observed daily and the tumour size recorded twice a week. This was carried out by measuring two perpendicular diameters (d1/d2) with a calliper. These measures were used to obtain both tumour surface and volume: […] Results were expressed as single values and/or as the mean±SD or median from each experimental group. A case-control study was performed with treated and control mice in order to determine whether differences between placebo, 9d, Cisplatin or 9d+Cisplatin were present. The data obtained (tumour surface and volume) were tested for Normal distribution within the groups (Kolmogorov Smirnov test p<0.05). […] The U-test of Mann Withney was chosen for being one of the better known non-parametrical tests, anyway, results for this test are equivalent both to those of Wilcoxon's sum of ranges and Kruskal-Wallis two-groups test. We excluded of the study animals that have undetectable or unscored tumour on 31th day after tumour inoculation. Due to the high dispersion of data, outlayers were excluded of the study.

[1] = day 10 after tumour inoculation
[2] = day 13 after tumour inoculation
[3] = day 17 after tumour inoculation
[4] = day 20 after tumour inoculation
[5] = day 24 after tumour inoculation
[6] = day 27 after tumour inoculation
[7] = day 31 after tumour inoculation

SMILES: N.N.[Cl][Pt][Cl] [Cisplatin, reference compound]
- Inhibition of the in vivo growth of Lewis lung tumour in inbred mice, in words: inhibit the in vivo growth
- SURFACE Overall values (Mean) (day 0 after tumour inoculation): 0 mm^2
- SURFACE Overall values (Median) (day 0 after tumour inoculation): 0 mm^2
- VOLUME Overall values (Mean) (day 0 after tumour inoculation): 0 mm^3
- VOLUME Overall values (Median) (day 0 after tumour inoculation): 0 mm^3
- SURFACE Overall values (Mean) [1]: 2.4 mm^2
- SURFACE Overall values (Median) [1]: 0 mm^2
- VOLUME Overall values (Mean) [1]: 3.27 mm^3
- VOLUME Overall values (Median) [1]: 0 mm^3
- SURFACE Overall values (Mean) [2]: 6.73 mm^2
- SURFACE Overall values (Median) [2]: 4 mm^2
- VOLUME Overall values (Mean) [2]: 11.23 mm^3
- VOLUME Overall values (Median) [2]: 4 mm^3
- SURFACE Overall values (Mean) [3]: 20.73 mm^2
- SURFACE Overall values (Median) [3]: 25 mm^2
- VOLUME Overall values (Mean) [3]: 49.97 mm^3
- VOLUME Overall values (Median) [3]: 56 mm^3
- SURFACE Overall values (Mean) [4]: 58.33 mm^2
- SURFACE Overall values (Median) [4]: 49 mm^2
- VOLUME Overall values (Mean) [4]: 269.1 mm^3
- VOLUME Overall values (Median) [4]: 171.5 mm^3
- SURFACE Overall values (Mean) [5]: 106.07 mm^2
- SURFACE Overall values (Median) [5]: 90 mm^2
- VOLUME Overall values (Mean) [5]: 619.43 mm^3
- VOLUME Overall values (Median) [5]: 405 mm^3
- SURFACE Overall values (Mean) [6]: 160.07 mm^2
- SURFACE Overall values (Median) [6]: 120 mm^2
- VOLUME Overall values (Mean) [6]: 1076.9 mm^3
- VOLUME Overall values (Median) [6]: 600 mm^3
- SURFACE Overall values (Mean) [7]: 204.93 mm^2
- SURFACE Overall values (Median) [7]: 169 mm^2
- VOLUME Overall values (Mean) [7]: 1530.4 mm^3
- VOLUME Overall values (Median) [7]: 1080 mm^3
- Differences in Lewis Lung tumour growth rate vs. placebo, statistical significance p (Mann-Whitney U test) (days 10th, 13th and 17 th): < 0.05

SMILES: Br.N[C@]1(C[n+]2ccccc2)C[C@H](C(=O)O)NC1=O.[Br-] (single isomer, unassigned; isomer 4) [isomer 4, 3S,5R-1-(3-Amino-5-carboxy-2-oxopyrrolidin-3-ylmethyl)pyridinium bromide hidrobromide]
- Inhibition of the in vivo growth of Lewis lung tumour in inbred mice, in words: inhibit the in vivo growth
- SURFACE Overall values (Mean) (day 0 after tumour inoculation): 0 mm^2
- SURFACE Overall values (Median) (day 0 after tumour inoculation): 0 mm^2
- VOLUME Overall values (Mean) (day 0 after tumour inoculation): 0 mm^3
- VOLUME Overall values (Median) (day 0 after tumour inoculation): 0 mm^3
- SURFACE Overall values (Mean) [1]: 2 mm^2
- SURFACE Overall values (Median) [1]: 0 mm^2
- VOLUME Overall values (Mean) [1]: 2.27 mm^3
- VOLUME Overall values (Median) [1]: 0 mm^3
- SURFACE Overall values (Mean) [2]: 6.47 mm^2
- SURFACE Overall values (Median) [2]: 4 mm^2
- VOLUME Overall values (Mean) [2]: 12.5 mm^3
- VOLUME Overall values (Median) [2]: 4 mm^3
- SURFACE Overall values (Mean) [3]: 20.13 mm^2
- SURFACE Overall values (Median) [3]: 24 mm^2
- VOLUME Overall values (Mean) [3]: 52.73 mm^3
- VOLUME Overall values (Median) [3]: 48 mm^3
- SURFACE Overall values (Mean) [4]: 34.33 mm^2
- SURFACE Overall values (Median) [4]: 36 mm^2
- VOLUME Overall values (Mean) [4]: 112.3 mm^3
- VOLUME Overall values (Median) [4]: 108 mm^3
- SURFACE Overall values (Mean) [5]: 60.6 mm^2
- SURFACE Overall values (Median) [5]: 80 mm^2
- VOLUME Overall values (Mean) [5]: 253.77 mm^3
- VOLUME Overall values (Median) [5]: 320 mm^3
- SURFACE Overall values (Mean) [6]: 104.8 mm^2
- SURFACE Overall values (Median) [6]: 88 mm^2
- VOLUME Overall values (Mean) [6]: 557.13 mm^3
- VOLUME Overall values (Median) [6]: 364.5 mm^3
- SURFACE Overall values (Mean) [7]: 141.8 mm^2
- SURFACE Overall values (Median) [7]: 130 mm^2
- VOLUME Overall values (Mean) [7]: 887.17 mm^3
- VOLUME Overall values (Median) [7]: 665.5 mm^3
- Differences in Lewis Lung tumour growth rate vs. placebo, statistical significance p (Mann-Whitney U test) (all days scored after the day 13th): < 0.05
